pIC50: −log10 of the molar value. Values after ≈ are worked out from the molar mass of the structure shown.
What was measured:
[1] = Inhibition of recombinant mouse GALK1 using ATP as substrate incubated for 1 hr and measured by Kinase-Glo assay; details: for pIC50: read-out: IC50
[2] = Stability of compound in rat microsomes assessed as half-life; format: ADME, Microsome
[3] = Permeability of compound by PAMPA assay; format: ADME; details: for Papp: read-out: permeability
[4] = Kinetic aqueous solubility of the compound; format: physicochemical; details: buffer; read-out: Kinetic_solubility

| SMILES | IC50 [1] | half-life [2] [min] | Papp [3] [×10⁻⁶ cm/s] | solubility kinetic [4] [µg/mL] | pIC50 [1] | permeability [3] |
| --- | --- | --- | --- | --- | --- | --- |
| CC1=C(C(=O)Nc2nnc(-c3cccnc3)s2)C(c2ccccc2Cl)N=C(Nc2nc3ccc(Cl)cc3o2)N1 (configuration not stated) | Not Active | > 30 | < 10.3 | < 1 | – | – |
| CC1=C(C(=O)N2CCOCC2)C(c2ccccc2Cl)N=C(Nc2nc3ccccc3o2)N1 (configuration not stated) | – | 2.1 | – | 15.3 (≈ 33.9 µM) | 4.61 | 1046.7 10^-6 cm/s |
| CCOc1ccc(C2N=C(Nc3nc4ccc(F)cc4o3)NC(C)=C2C(=O)Nc2cc(C(=O)O)ccn2)c(Cl)c1 (configuration not stated) | – | > 30 | < 1 | 11.3 (≈ 20 µM) | 5.41 | – |
| CC1=C(C(=O)Nc2cc(C(=O)O)ccn2)[C@H](c2ccccc2Cl)N=C(Nc2nc3ccccc3o2)N1 | – | > 30 | < 1 | > 74 | 5.46 | – |
| CC1=C(C(=O)Nc2cc(C(=O)O)ccn2)C(c2ccc(C)cc2Cl)N=C(Nc2nc3cnccc3o2)N1 (configuration not stated) | – | > 30 | < 1 | > 51 | 5.16 | – |
| CC1=C(C(=O)NCc2ccccc2CO)C(c2ccccc2Cl)N=C(Nc2nc3ccccc3o2)N1 (configuration not stated) | – | 5.09 | – | < 1 | 4.81 | 1362.3 10^-6 cm/s |
| CC1=C(C(=O)Nc2cc(C(=O)O)ccn2)[C@H](c2ccccc2Cl)N=C(Nc2nc3ccc(F)cc3o2)N1 | – | > 30 | < 1 | 55.6 (≈ 107 µM) | 5.76 | – |
| CC1=C(C(=O)Nc2ccccc2CO)C(c2ccccc2Cl)N=C(Nc2nc3ccccc3o2)N1 (configuration not stated) | – | 7.71 | – | < 1 | 4.76 | 1038.5 10^-6 cm/s |
| O=C1CC(C(=O)Nc2nncs2)CC2=C1C(c1ccccc1Cl)N=C(Nc1nc3ccccc3o1)N2 (configuration not stated) | – | > 30 | < 5 | 1.23 (≈ 2.37 µM) | 4.91 | – |
| CC1=C(C(=O)Nc2cccc(-c3nnn[nH]3)c2)C(c2ccccc2Cl)N=C(Nc2nc3ccccc3o2)N1 (configuration not stated) | – | > 30 | 5 | 47.5 (≈ 90.3 µM) | 4.46 | – |
| CC1=C(C(=O)Nc2cc(B(O)O)ccn2)C(c2ccc(C)cc2Cl)N=C(Nc2nc3ccc(F)cc3o2)N1 (configuration not stated) | – | 14.1 | < 3.2 | < 1 | 4.96 | – |
| CC1=C(C(=O)Nc2cc(C(=O)O)ccn2)[C@H](c2ccc(C)cc2Cl)N=C(Nc2nc3ccc(F)cc3o2)N1 | – | > 30 | < 1 | > 79 | 5.86 | – |
| CC1=C(C(=O)Nc2cc(C(=O)O)ccn2)C(c2ccccc2Cl)N=C(Nc2nc3c(N)cccc3o2)N1 (configuration not stated) | – | > 30 | < 1 | > 76 | 4.51 | – |
| CC1=C(C(=O)Nc2cc(C#N)ccn2)C(c2ccccc2Cl)N=C(Nc2nc3ccc(F)cc3o2)N1 (configuration not stated) | – | > 30 | < 6.8 | < 1 | 5.31 | – |
| COC(=O)Cc1cccc(NC(=O)C2=C(C)NC(Nc3nc4ccccc4o3)=NC2c2ccccc2Cl)c1 (configuration not stated) | – | 10.3 | < 17.4 | < 1 | 4.86 | – |
| CC1=C(C(=O)Nc2cc(C(=O)O)ccn2)C(c2ccccc2Cl)N=C(Nc2nc3ccccc3o2)N1C(=O)c1ccccc1 (configuration not stated) | – | > 30 | < 1 | 73.9 (≈ 122 µM) | 5.11 | – |
| O=C1CC(C(=O)O)CC2=C1C(c1ccccc1Cl)N=C(Nc1nc3ccccc3o1)N2 (configuration not stated) | – | > 30 | < 1 | 52.6 (≈ 120 µM) | 5.16 | – |
| CC1=C(C(=O)Nc2cc(C(=O)O)ccn2)C(c2ccc(C(F)(F)F)cc2Cl)N=C(Nc2nc3ccc(F)cc3o2)N1 (configuration not stated) | – | > 30 | < 1 | 19.4 (≈ 32.9 µM) | 4.96 | – |
| CCOC(=O)N1C(Nc2nc3ccccc3o2)=NC(c2ccccc2Cl)C(C(=O)Nc2cc(C(=O)O)ccn2)=C1C (configuration not stated) | – | > 30 | < 1 | > 85 | 4.71 | – |
| COc1ccc2nc(NC3=NC(c4ccccc4Cl)C(C(=O)Nc4cc(C(=O)O)ccn4)=C(C)N3)oc2c1 (configuration not stated) | – | > 30 | < 1 | > 79 | 4.66 | – |
| CC1=C(C(=O)Nc2ccc(N3CCNCC3)cc2)C(c2ccccc2Cl)N=C(Nc2nc3ccccc3o2)N1 (configuration not stated) | – | 8.63 | 894 | 2.42 (≈ 4.46 µM) | 4.31 | – |
| CC1=C(C(=O)Nc2cc(C(=O)O)ccn2)[C@@H](c2ccc(C)cc2Cl)N=C(Nc2nc3cccc(N)c3o2)N1 | – | > 30 | < 1 | > 78 | 4.66 | – |
| CC1=C(C(=O)NCc2cccnc2)C(c2ccccc2Cl)N=C(Nc2nc3ccccc3o2)N1 (configuration not stated) | – | 1.58 | – | < 1 | 4.71 | 1248.8 10^-6 cm/s |
| CC1=C(C(=O)Nc2cc(C(=O)O)ccn2)C(c2ccc(C(=O)O)cc2Cl)N=C(Nc2nc3ccc(F)cc3o2)N1 (configuration not stated) | – | > 30 | < 1 | > 83 | 4.81 | – |

| SMILES | IC50 [1] | half-life [2] [min] | Papp [3] [×10⁻⁶ cm/s] | solubility kinetic [4] [µg/mL] | pIC50 [1] | permeability [3] |
| --- | --- | --- | --- | --- | --- | --- |
| CC1=C(C(=O)Nc2ccc([N+](=O)[O-])cc2)C(c2ccccc2Cl)N=C(Nc2nc3ccccc3o2)N1 (configuration not stated) | – | > 30 | < 7.3 | < 1 | 5.46 | – |
| CC1=C(C(=O)Nc2nncs2)C(c2ccc(Cl)cc2Cl)N=C(Nc2nc3ccccc3o2)N1 (configuration not stated) | – | > 30 | < 4.9 | < 1 | 5.21 | – |
| CC1=C(C(=O)NCc2ccccn2)C(c2ccccc2Cl)N=C(Nc2nc3ccccc3o2)N1 (configuration not stated) | – | 6.56 | – | 1.8 (≈ 3.81 µM) | 4.71 | 1424 10^-6 cm/s |
| CC1=C(C(=O)Nc2cccc(C(=O)O)n2)C(c2ccccc2Cl)N=C(Nc2nc3ccccc3o2)N1 (configuration not stated) | – | > 30 | < 1 | 60 (≈ 119 µM) | 5.16 | – |
| CC1=C(C(=O)Nc2ccc(C(=O)O)nc2)C(c2ccccc2Cl)N=C(Nc2nc3ccccc3o2)N1 (configuration not stated) | – | > 30 | < 1 | 24.6 (≈ 48.9 µM) | 5.01 | – |
| CC1=C(C(=O)Nc2ccc(Br)cc2)C(c2ccccc2Cl)N=C(Nc2nc3ccccc3o2)N1 (configuration not stated) | – | > 30 | < 14.9 | < 1 | 4.81 | – |
| CC1=C(C(=O)Nc2ccc(C(N)=O)cc2)C(c2ccccc2Cl)N=C(Nc2nc3ccccc3o2)N1 (configuration not stated) | – | > 30 | < 6.3 | < 1 | 5.16 | – |
| CC1=C(C(=O)Nc2ccc(-n3cccn3)cc2)C(c2ccccc2Cl)N=C(Nc2nc3ccccc3o2)N1 (configuration not stated) | – | 16.4 | < 11.8 | < 1 | 4.91 | – |
| CC1=C(C(=O)Nc2cc(C(=O)O)ccn2)C(c2ccc(C)cc2Cl)N=C(Nc2nc3ncccc3o2)N1 (configuration not stated) | – | > 30 | < 1 | > 51 | 4.71 | – |
| CC1=C(C(=O)Nc2ccc(C(=O)O)cn2)C(c2ccccc2Cl)N=C(Nc2nc3ccc(F)cc3o2)N1 (configuration not stated) | – | > 30 | < 1 | > 77 | 5.46 | – |
| CC1=C(C(=O)Nc2cc(C(=O)O)ccn2)C(c2ccc(-n3ccnc3)cc2Cl)N=C(Nc2nc3ccc(F)cc3o2)N1 (configuration not stated) | – | > 30 | < 1 | > 87 | 6.01 | – |
| CC1=C(C(=O)Nc2nnc(-c3cccnc3)s2)C(c2ccccc2Cl)N=C(Nc2nc3cc(F)ccc3o2)N1 (configuration not stated) | – | > 30 | < 1.5 | < 1 | 4.71 | – |
| CC1=C(C(=O)Nc2nncs2)C(c2ccc(C)cc2Cl)N=C(Nc2nc3ccccc3o2)N1 (configuration not stated) | – | > 30 | < 14.4 | < 1 | 5.21 | – |
| CC1=C(C(=O)Nc2cc(C(=O)O)ccn2)C(c2ccc(Br)cc2Cl)N=C(Nc2nc3ccc(F)cc3o2)N1 (configuration not stated) | – | > 30 | < 1.7 | 2.4 (≈ 4 µM) | 5.41 | – |
| CC1=C(C(=O)Nc2nnc(-c3cccnc3)s2)C(c2ccccc2Cl)N=C(Nc2nc3cc(Cl)ccc3o2)N1 (configuration not stated) | – | > 30 | < 3.4 | < 1 | 4.71 | – |
| CC1=C(C(=O)Nc2cc(C(=O)O)ccn2)C(c2ccc(C)cc2Cl)N=C(Nc2nc3cccnc3o2)N1 (configuration not stated) | Not Active | > 30 | < 1 | > 51 | – | – |
| CC1=C(C(=O)Nc2nnc(-c3cccnc3)s2)C(c2ccccc2Cl)N=C(Nc2nc3ccccc3o2)N1 (configuration not stated) | – | > 30 | < 3.7 | < 1 | 5.01 | – |
| CC1=C(C(=O)Nc2cc(C(=O)O)ccn2)C(c2ccc(-n3cccn3)cc2Cl)N=C(Nc2nc3ccc(F)cc3o2)N1 (configuration not stated) | – | > 30 | < 1 | > 87 | 5.46 | – |
| CC1=C(C(=O)Nc2cc(C(=O)O)ccn2)C(c2cccc(N)c2Cl)N=C(Nc2nc3ccc(F)cc3o2)N1 (configuration not stated) | – | > 30 | < 1 | > 79 | 4.76 | – |
| COc1ccc2nc(NC3=NC(c4ccccc4Cl)C(C(=O)Nc4nnc(-c5cccnc5)s4)=C(C)N3)oc2c1 (configuration not stated) | – | > 30 | < 4.4 | < 1 | 4.66 | – |
| CCOC(=O)c1nnc(NC(=O)C2=C(C)NC(Nc3nc4ccccc4o3)=NC2c2ccccc2Cl)s1 (configuration not stated) | – | 3.16 | < 2.7 | < 1 | 4.97 | – |
| CC1=C(C(=O)Nc2cc(C(=O)O)ccn2)[C@@H](c2ccccc2Cl)N=C(Nc2nc3ccc(F)cc3o2)N1 | – | > 30 | < 1 | 17.3 (≈ 33.2 µM) | 4.86 | – |
| CC1=C(C(=O)Nc2cc(C(=O)O)ccn2)[C@H](c2ccc(C)cc2Cl)N=C(Nc2nc3cccc(N)c3o2)N1 | – | > 30 | < 1 | > 53 | 5.85 | – |
| CC1=C(C(=O)Nc2cc(C(=O)O)ccn2)C(c2ccc(N3CCCC3)cc2Cl)N=C(Nc2nc3ccc(F)cc3o2)N1 (configuration not stated) | – | > 30 | < 1 | > 87 | 4.96 | – |

— ChEMBL document CHEMBL5050861 (2021)
